Measured values from ChEMBL document CHEMBL3045829, “Structure- and species-dependent insecticidal effects of neo-clerodane diterpenes” (J Agric Food Chem, 2000).

Tests used:
Myzus persicae [1] = assay: Potency index, ratio of antifeedant activity of farnesol to compound against Myzus persicae (green peach aphid) assessed feeding settling inhibition index at 50 ug/cm2; assay type: functional
Myzus persicae [2] = assay: Antifeedant activity against Myzus persicae (green peach aphid) assessed feeding settling inhibition index at 50 ug/cm2 relative to untreated control; assay type: functional
Spodoptera littoralis [3] = assay: Nutritional effect in Spodoptera littoralis L6 larvae assessed as food consumption at 20 ug/insect administered through oral cannulation after 72 hr relative to untreated control; assay type: functional
Spodoptera littoralis [4] = assay: Nutritional effect in Spodoptera littoralis L6 larvae assessed as weight gain at 20 ug/insect administered through oral cannulation after 72 hr relative to untreated control; assay type: functional
Spodoptera littoralis [5] = assay: Antifeedant activity against Spodoptera littoralis assessed as inhibition of feeding at 50 ug/cm2 by choice feeding assay relative to untreated control; assay type: functional
Spodoptera littoralis [6] = assay: Antifeedant activity against Spodoptera littoralis assessed as inhibition of feeding by choice feeding assay relative to untreated control; assay type: functional, organism-based
[7] = test system: Leptinotarsa decemlineata; assay: Toxicity against Leptinotarsa decemlineata assessed as insect mortality administered through hemolymph injection after 72 hr; assay type: functional; set-up: concentration or dose not given beside the values
[8] = test system: Leptinotarsa decemlineata; assay: Antifeedant activity against Leptinotarsa decemlineata assessed as inhibition of feeding by no-choice feeding assay relative to untreated control; assay type: functional, organism-based
[9] = test system: Leptinotarsa decemlineata; assay: Antifeedant activity against Leptinotarsa decemlineata assessed as inhibition of feeding at 50 ug/cm2 by no-choice feeding assay relative to untreated control; assay type: functional
[10] = test system: Leptinotarsa decemlineata; assay: Antifeedant activity against Leptinotarsa decemlineata assessed as inhibition of feeding by choice feeding assay relative to untreated control; assay type: functional, organism-based
[11] = test system: Leptinotarsa decemlineata; assay: Antifeedant activity against Leptinotarsa decemlineata assessed as inhibition of feeding at 50 ug/cm2 by choice feeding assay relative to untreated control; assay type: functional

Row | Compound | fold change (FC) (Myzus persicae [1]) | inhibition at 50 µg/cm2 (Myzus persicae [2]) | Activity (Spodoptera littoralis [3]) | Activity (Spodoptera littoralis [4]) | inhibition at 50 µg/cm2 (Spodoptera littoralis [5]) | EC50 (Spodoptera littoralis [6]) | mortality [7] | EC50 [8] | inhibition at 50 µg/cm2 [9] | EC50 [10] | inhibition at 50 µg/cm2 [11]
1 | C=C1CCC[C@@H]2[C@@](C)(C/C=C(/C=O)CC=O)[C@H](C)CC[C@@]12C [E-ISOLINARIDIAL] | 2 | 44.3% | 95.56% | 108.22% | 23.3% | > 50 microg/cm2 | 0% | 8.5 microg/cm2 | 90.7% | 10.5 microg/cm2 | 90.1%
2 | CC(=O)OC/C=C(\COC(C)=O)C(C[C@@]1(C)[C@H](C)CC[C@]2(C)[C@@H]1CCCC2(O)CO)OC(C)=O (stereo partly specified) | – | – | 38.19% | 29.72% | 32.6% | > 50 microg/cm2 | 50% | – | 86.5% | – | 97.1%
3 | CC(=O)OC/C=C(\COC(C)=O)[C@@H](C[C@@]1(C)[C@H](C)CC[C@@]2(C)C(C)=CCC[C@H]12)OC(C)=O | – | 33.5% | 40.02% | 30.69% | 28.1% | > 50 microg/cm2 | 8% | > 50 microg/cm2 | 35.5% | > 50 microg/cm2 | 31.4%
4 | C=C1CCC[C@@H]2[C@@](C)(CC(O)/C(=C/COC(C)=O)COC(C)=O)[C@H](C)CC[C@@]12C (stereo partly specified) | 2 | 48.2% | 88.33% | 106.65% | 42.5% | > 50 microg/cm2 | 26% | > 50 microg/cm2 | 22.6% | > 50 microg/cm2 | 61.4%
5 | C[C@@H]1CC[C@@H]2C(C)(C)C[C@]3(C)CC=C[C@]123 [SILPHINENE] | – | – | – | – | – | – | 24% | 2.7 microg/cm2 | – | 0.27 microg/cm2 | –
6 | CC(C)=CCC/C(C)=C/CC/C(C)=C/CO [FARNESOL] | – | 90.6% | – | – | – | – | – | – | – | – | –
7 | C=C1CCC[C@@H]2[C@@](C)(CC(OC(C)=O)/C(=C/COC(C)=O)COC(C)=O)[C@H](C)CC[C@@]12C (stereo partly specified) | – | 19.7% | 93.02% | 104.75% | 18.4% | > 50 microg/cm2 | 32% | > 50 microg/cm2 | 11.6% | > 50 microg/cm2 | 38.5%
8 | C=C1CCC[C@@H]2[C@@](C)(C/C=C(\CC=O)C(C)=O)[C@H](C)CC[C@@]12C | 2 | 45.6% | 92.7% | 104.33% | 14.7% | > 50 microg/cm2 | 26% | 7.7 microg/cm2 | 98.9% | 12.8 microg/cm2 | 89.9%
9 | CC(=O)OC1C/C(=C/C[C@@]2(C)[C@H](C)CC[C@]3(C)[C@@H]2CCC[C@@]32CO2)C(OC(C)=O)O1 (stereo partly specified) | – | – | 55.54% | 26.37% | 73.9% | – | 42% | – | 73.3% | – | 91.2%
10 | CC(=O)OC/C=C(\COC(C)=O)C(C[C@@]1(C)[C@H](C)CC[C@]2(C)[C@@H]1CCCC21CO1)OC(C)=O (stereo partly specified) | – | 26.3% | 39.74% | 31.03% | 17.9% | > 50 microg/cm2 | 50% | > 50 microg/cm2 | 40.7% | 6.4 microg/cm2 | 96.6%
11 | C=C1CCC[C@@H]2[C@@](C)(C/C=C3/CC(OC(C)=O)OC3OC(C)=O)[C@H](C)CC[C@@]12C (stereo partly specified) | 2 | 43.1% | 110.26% | 110.18% | 11.2% | > 50 microg/cm2 | 25% | > 50 microg/cm2 | 28.8% | > 50 microg/cm2 | 33.8%
